Source: ChEMBL document CHEMBL1142499 (Bioorg Med Chem Lett, 2008)

Experiments:
[1] = molecular target: 3',5'-cyclic-AMP phosphodiesterase 4A (Homo sapiens, UniProt P27815); assay: Intrinsic inhibition of GST-fused human PDE4A expressed in SF9 cells
Blood [2] = assay: Inhibition of LPS-induced TNFalpha production in human whole blood; format: functional, tissue-based
Blood [3] = assay: Inhibition of LPS-induced TNFalpha production in Squirrel monkey whole blood; format: functional, tissue-based; conditions: Saimiri sciureus
Cytochrome P450 2C9 = Cytochrome P450 2C9 (Homo sapiens, UniProt P11712); assay: Inhibition of CYP2C9; format: ADME
Cytochrome P450 2C9, sequence (P11712 whole entry): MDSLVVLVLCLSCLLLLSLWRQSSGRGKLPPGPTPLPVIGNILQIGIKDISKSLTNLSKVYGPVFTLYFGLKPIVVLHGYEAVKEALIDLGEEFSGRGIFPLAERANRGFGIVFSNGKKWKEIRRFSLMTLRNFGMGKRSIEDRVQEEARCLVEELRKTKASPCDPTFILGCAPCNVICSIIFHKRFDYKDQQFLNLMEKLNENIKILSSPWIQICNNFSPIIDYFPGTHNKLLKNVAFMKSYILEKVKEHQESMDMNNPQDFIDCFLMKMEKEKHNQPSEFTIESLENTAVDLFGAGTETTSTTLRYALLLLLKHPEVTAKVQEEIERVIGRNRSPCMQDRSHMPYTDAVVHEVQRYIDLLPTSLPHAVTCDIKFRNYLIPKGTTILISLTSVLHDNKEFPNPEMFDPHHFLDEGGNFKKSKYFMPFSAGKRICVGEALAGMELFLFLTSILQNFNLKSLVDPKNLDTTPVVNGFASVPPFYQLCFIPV

[4] = Half life in orally and iv dosed rat; format: ADME, organism-based; conditions: in vivo
[5] = Half life in orally and iv dosed dog; format: ADME, organism-based, Canis lupus familiaris; conditions: in vivo
[6] = Half life in orally and iv dosed Squirrel monkey; format: ADME, organism-based, Saimiri sciureus; conditions: in vivo
[7] = Cmax in po dosed squirrel monkey assessed after first episode of emesis; format: ADME, organism-based, Saimiri sciureus; design: route oral; conditions: in vivo
[8] = Bioavailability in orally and iv dosed rat; format: ADME, organism-based; conditions: in vivo, po
[9] = Bioavailability in orally and iv dosed dog; format: ADME, organism-based, Canis lupus familiaris; conditions: in vivo, po
[10] = Bioavailability in orally and iv dosed Squirrel monkey; format: ADME, organism-based, Saimiri sciureus; conditions: in vivo, po
Cavia porcellus = assay: Inhibition of ovalbumin-induced bronchoconstriction in conscious guinea pig at 0.03 mg/kg, ip administered 30 mins before ovalbumin challenge; format: functional; conditions: route intraperitoneal
Ovis aries = assay: Inhibition of late-phase antigen-induced bronchoconstriction in ascaris-sensitive sheep at 0.5 mg/kg, iv daily for 4 days and antigen challenged after 2 hrs post dose on 4th day; format: functional
[11] = Ratio of emesis Cmax in Squirrel monkey at 2 mg/kg, po to IC50 for LPS-induced TNFalpha production in Squirrel monkey whole blood; format: functional, Saimiri sciureus
[12] = molecular target: Voltage-gated inwardly rectifying potassium channel KCNH2 (Homo sapiens, UniProt Q12809)
Voltage-gated inwardly rectifying potassium channel KCNH2, sequence (Q12809 whole entry): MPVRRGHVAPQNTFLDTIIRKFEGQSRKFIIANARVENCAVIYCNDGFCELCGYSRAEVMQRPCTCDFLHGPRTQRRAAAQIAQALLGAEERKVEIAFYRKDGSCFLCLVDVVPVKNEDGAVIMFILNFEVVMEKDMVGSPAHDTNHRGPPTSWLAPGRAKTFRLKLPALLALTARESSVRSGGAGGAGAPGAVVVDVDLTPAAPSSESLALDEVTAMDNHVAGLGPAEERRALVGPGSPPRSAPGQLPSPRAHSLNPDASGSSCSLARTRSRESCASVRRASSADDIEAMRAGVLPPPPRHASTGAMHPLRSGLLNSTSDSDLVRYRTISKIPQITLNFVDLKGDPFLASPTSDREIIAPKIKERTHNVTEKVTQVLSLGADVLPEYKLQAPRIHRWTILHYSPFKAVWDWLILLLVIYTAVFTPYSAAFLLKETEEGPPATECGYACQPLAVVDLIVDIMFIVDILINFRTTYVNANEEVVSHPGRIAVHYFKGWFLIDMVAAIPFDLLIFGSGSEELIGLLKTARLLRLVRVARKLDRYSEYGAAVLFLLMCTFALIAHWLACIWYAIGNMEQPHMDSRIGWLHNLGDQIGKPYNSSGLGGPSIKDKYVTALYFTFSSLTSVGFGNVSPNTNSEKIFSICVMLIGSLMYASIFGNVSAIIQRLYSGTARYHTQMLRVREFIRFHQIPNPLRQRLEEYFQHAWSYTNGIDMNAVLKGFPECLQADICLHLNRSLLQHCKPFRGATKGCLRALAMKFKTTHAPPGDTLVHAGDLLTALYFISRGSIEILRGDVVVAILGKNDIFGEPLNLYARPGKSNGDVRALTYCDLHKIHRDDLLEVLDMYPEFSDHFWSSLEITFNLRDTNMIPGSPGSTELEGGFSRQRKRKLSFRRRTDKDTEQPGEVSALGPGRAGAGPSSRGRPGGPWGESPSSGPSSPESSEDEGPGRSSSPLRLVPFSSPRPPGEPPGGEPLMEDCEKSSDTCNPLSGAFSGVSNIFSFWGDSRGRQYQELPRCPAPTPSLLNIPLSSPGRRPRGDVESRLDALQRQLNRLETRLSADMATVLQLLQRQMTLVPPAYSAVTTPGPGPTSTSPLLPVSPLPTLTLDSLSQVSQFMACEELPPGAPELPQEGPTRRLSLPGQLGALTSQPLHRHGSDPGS

3',5'-cyclic-AMP phosphodiesterase 4A, sequence (P27815 whole entry, the tested form may be a part): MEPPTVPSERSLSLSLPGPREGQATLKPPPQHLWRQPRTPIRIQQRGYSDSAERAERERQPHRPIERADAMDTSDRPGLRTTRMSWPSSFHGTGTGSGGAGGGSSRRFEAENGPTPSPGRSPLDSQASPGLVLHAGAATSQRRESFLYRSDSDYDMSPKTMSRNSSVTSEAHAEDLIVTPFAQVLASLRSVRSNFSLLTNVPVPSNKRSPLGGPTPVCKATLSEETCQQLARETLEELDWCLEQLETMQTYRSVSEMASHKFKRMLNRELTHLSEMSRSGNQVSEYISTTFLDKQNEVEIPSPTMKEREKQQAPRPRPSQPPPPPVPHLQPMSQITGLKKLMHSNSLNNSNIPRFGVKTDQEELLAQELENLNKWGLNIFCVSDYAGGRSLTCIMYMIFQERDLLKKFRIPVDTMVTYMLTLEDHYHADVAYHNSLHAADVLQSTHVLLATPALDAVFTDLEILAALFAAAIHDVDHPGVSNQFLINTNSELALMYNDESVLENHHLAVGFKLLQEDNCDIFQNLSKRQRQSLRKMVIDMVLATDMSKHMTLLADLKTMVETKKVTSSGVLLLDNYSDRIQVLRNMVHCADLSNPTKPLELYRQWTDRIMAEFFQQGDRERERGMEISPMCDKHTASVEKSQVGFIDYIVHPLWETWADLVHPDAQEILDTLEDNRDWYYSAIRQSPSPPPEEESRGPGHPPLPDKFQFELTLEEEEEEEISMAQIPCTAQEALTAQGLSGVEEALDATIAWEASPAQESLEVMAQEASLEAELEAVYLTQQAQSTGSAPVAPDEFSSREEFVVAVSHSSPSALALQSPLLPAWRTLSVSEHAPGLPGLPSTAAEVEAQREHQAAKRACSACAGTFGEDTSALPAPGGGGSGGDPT

Compound | IC50 [1] [nM] | IC50 (Blood [2]) [nM] | IC50 [12] [nM] | other results
CC(C)(O)c1ccc(-c2cccc(-n3cc(C(=O)NC4CC4)c(=O)c4cccnc43)c2)c[n+]1[O-] | 6.2 | 120 | 50100 | IC50 (Blood [3]): 7 nM; IC50 (Cytochrome P450 2C9): 59000 nM; half-life [4]: 1.5 h; half-life [5]: 2 h; half-life [6]: 4 h; Cmax [7]: 3.7 µM; bioavailability [8]: 87%; bioavailability [9]: 100%; bioavailability [10]: 33%; inhibition in vivo at 0.03 mg/kg (Cavia porcellus): 69%; inhibition in vivo at 0.5 mg/kg (Ovis aries): 84%; Ratio [11]: 530
Cc1noc(/C(=C/c2cccc(-c3cc(C(C)(C)S(C)(=O)=O)cc4cccnc34)c2)c2ccc(S(C)(=O)=O)cc2)n1 | – | – | – | half-life [4]: 4 h; half-life [5]: 5 h; half-life [6]: 4 h; Cmax [7]: 3 µM; bioavailability [8]: 95%; bioavailability [9]: 55%; bioavailability [10]: 33%; inhibition in vivo at 0.5 mg/kg (Ovis aries): 92%
CC(C)(O)c1ccc(C#Cc2cccc(-n3cc(C(=O)NC4CC4)c(=O)c4cccnc43)c2)c[n+]1[O-] | – | 300 | 89400 | –
CC(C)(O)c1ccc(-c2cccc(-n3cc(C(=O)NC4CC4)c(=O)c4cccnc43)c2)cn1 | – | 66 | – | half-life [4]: < 0.5 h
O=C(NC1CC1)c1cn(-c2cccc(C#Cc3ccc[n+]([O-])c3)c2)c2ncccc2c1=O [MK-0873] | 6.7 | 180 | – | IC50 (Blood [3]): 23 nM; IC50 (Cytochrome P450 2C9): 41000 nM; half-life [4]: 2 h; half-life [5]: 2 h; half-life [6]: 5 h; Cmax [7]: 5.1 µM; bioavailability [8]: 98%; bioavailability [9]: 100%; bioavailability [10]: 38%; inhibition in vivo at 0.03 mg/kg (Cavia porcellus): 65%; inhibition in vivo at 0.5 mg/kg (Ovis aries): 84%
O=C(NC1CC1)c1cn(-c2cccc(-c3cccnc3)c2)c2ncccc2c1=O | – | 160 | – | –
O=C(NC1CC1)c1cn(-c2cccc(C#Cc3cccnc3)c2)c2ncccc2c1=O | – | 160 | 16700 | –
CCOc1cccc(-c2cccc(-n3cc(C(=O)NC(C)C)c(=O)c4cccnc43)c2)c1 | 1.54 | 840 | 2700 | –
O=C(Nc1c(Cl)cncc1Cl)c1cn(-c2ccc(Cl)cc2)c2ncccc2c1=O | 0.45 | 180 | 198 | –
CC(=O)c1ccc(-c2cccc(-n3cc(C(=O)NC(C)C)c(=O)c4cccnc43)c2)cc1 | 0.34 | 75 | – | –
CC(C)NC(=O)c1cn(-c2cccc(-c3ccc(S(C)(=O)=O)cc3)c2)c2ncccc2c1=O | 0.62 | 69 | 23000 | –
CS(=O)(=O)c1ccc(-c2cccc(-n3cc(C(=O)NC4CC4)c(=O)c4cccnc43)c2)cn1 | – | 140 | 13600 | –
Cc1noc(/C(=C/c2cccc(-n3cc(C(=O)Nc4c(Cl)cncc4Cl)c(=O)c4cccnc43)c2)c2ccc(S(C)(=O)=O)cc2)n1 | 0.06 | 3 | – | –
CC(=O)c1cccc(-c2cccc(-n3cc(C(=O)Nc4c(Cl)cncc4Cl)c(=O)c4cccnc43)c2)c1 | 0.17 | 5 | – | –
CC(=O)c1cccc(-c2cccc(-n3cc(C(=O)NC(C)C)c(=O)c4cccnc43)c2)c1 | 0.37 | 470 | 6960 | –
CSc1ccc(-c2cccc(-n3cc(C(=O)NC(C)C)c(=O)c4cccnc43)c2)cc1 | 0.75 | 650 | 960 | –

Further lines, with some results ahead:

IC50 [1] [nM] | IC50 (Blood [2]) [nM] | Compound | IC50 [12] [nM] | other results
15.3 | 700 | CC(C)NC(=O)c1cn(-c2ccccc2)c2ncccc2c1=O | 71500 | –
> 1000 | – | CC(C)N(C)C(=O)c1cn(-c2cccc(Br)c2)c2ncccc2c1=O | – | –
141 | – | NC(=O)c1cn(-c2cccc(Br)c2)c2ncccc2c1=O | > 94500 | –
9.2 | 700 | CC(C)NC(=O)c1cn(-c2cccc(Br)c2)c2ncccc2c1=O | 31600 | –
66.5 | – | Cc1ccc(-n2cc(C(=O)NC(C)C)c(=O)c3cccnc32)cc1Br | – | –
> 1000 | – | Cc1ccc2c(=O)c(C(=O)NC(C)C)cn(-c3cccc(Br)c3)c2n1 | – | –
– | 670 | O=C(NC1CC1)c1cn(-c2cccc(-c3ccncc3)c2)c2ncccc2c1=O | 18600 | –
3.54 | 2100 | CC(C)CNC(=O)c1cn(-c2cccc(Br)c2)c2ncccc2c1=O | – | –
